# Results published in US6599713B1, “Method for quantitating leukocyte count in whole blood sample” (priority 1999, dated 2003).
# Assays:
# [1] = test system: white blood cells contained in the whole blood; assay: Time required for lyzing white blood cells: MPO released from whole blood by surfactant, MPO enzyme immunoassay kit (Example 1); type: cell-based, human; details: room temperature; for MPO concentration of whole blood: 100 μl of 11% solution per 1 ml healthy human whole blood, mean ± SD of 3
# Procedure: 10 ml of healthy human whole blood was collected in a test tube containing 10 mg of EDTA-2K (manufactured and sold by Dojin Laboratories, Japan) and the resultant EDTA-containing whole blood sample was stirred well, and then 1 ml of the whole blood sample was taken out from the test tube. To the 1 ml whole blood sample taken out from the test tube was added 100 μl of an aqueous 11% solution of Triton™ X-100 (manufactured and sold under the brand of SIGMA™, U.S.A.), and the resultant mixture was stirred well and then allowed to stand at room temperature for 1 minute to obtain a (whole blood sample/surfactant) mixture containing the lyzed white blood cells. Substantially the same operation as mentioned above was repeated except that the standing time at room temperature was changed to 5 minutes, 30 minutes and 60 minutes to thereby lyze the white blood cells contained in the whole blood.
# After the above-mentioned period of time, each of the obtained (whole blood sample/surfactant) mixtures containing the lyzed white blood cells was individually diluted 2,000-fold with a sample diluting buffer (20 mM phosphate buffer (pH 7.4) containing 0.1% bovine serum albumin and 0.2% sodium azide), which buffer is attached to BIOXYTEC™ MPO Enzyme Immunoassay kit (manufactured and sold by OXIS International, Inc., U.S.A.), and the resultant diluted mixture was taken as a sample for the measurement of myeloperoxidase (MPO).
# With respect to the above-mentioned sample for the measurement of MPO and a standard MPO solution (which is obtained by dissolving commercially available MPO in the above mentioned buffer), the measurement of the MPO concentration was performed using BIOXYTEC™ MPO Enzyme Immunoassay kit (manufactured and sold by OXIS International, Inc., U.S.A.) in accordance with the instruction manual attached thereto.
# (§1) Specifically, with respect to the measurement of the MPO concentration of the above-mentioned sample, MPO (manufactured and sold by Elastin Products Co., INC., U.S.A.) was added to the sample so that the final concentration of the added MPO became 5 ng/ml or 10 ng/ml, and the resultant mixture was measured with respect to the MPO concentration. From the obtained value of MPO concentration, a calibration curve for each sample was obtained. The obtained calibration curve was corrected, based on its relationship with a calibration curve obtained with respect to the standard MPO solution, and the corrected calibration curve of each sample was used to determine the MPO concentration of the whole blood. The measurement was conducted 3 times, and a mean value±standard deviation was obtained.
# [2] = test system: white blood cells contained in a whole blood sample; assay: MPO-releasing effects of various surfactants on whole blood, ELISA (Examples 3 to 5); type: cell-based, human; details: Example 3 (Table 3): 500 μl blood + 500 μl 1% (w/v) surfactant solution, 60 minutes on ice, mean ± SD of 3
# Procedure: 10 ml of healthy human whole blood was collected using a 28 G winged intravenous injection needle (manufactured and sold by Terumo Corporation, Japan), and immediately mixed with 10 mg of EDTA-2K (manufactured and sold by Dojin Laboratories, Japan), and the resultant EDTA-containing whole blood sample was subjected to the below-described various measurements within 1 hour from the blood collection.
# 500 μl of the blood was put in a 2-ml Eppendorf tube, and 500 μl of a 1% (w/v) aqueous surfactant solution was added to the tube, and the resultant mixture was stirred for 2 seconds by a Vortex mixer. Subsequently, the mixture was allowed to stand for 60 minutes on ice to thereby lyze the white blood cells. After the lysis of the white blood cells, 100 μl of the mixture was taken out and added to 900 μl of a PBS solution containing dissolved therein 1% BSA (trade name: “Sigma fraction V”, manufactured and sold under the brand of SIGMA™, U.S.A.). The resultant mixture was stirred by a Vortex mixer, and then 10 μl of the mixture was taken out and diluted 2,000-fold with 1% BSA/PBS solution. The resultant diluted mixture was subjected to a measurement by ELISA.
# The outline of the ELISA is as follows. A 5 μg/ml PBS solution of an anti-MPO antibody was put into the wells of a Nunc Immuno Plate (manufactured and sold by Nalge Nunc International, Denmark) in an amount of 100 μl per well. The solution in each well was sealed and subjected to a reaction for 18 hours at 4° C. thereby immobilizing the primary antibody. The wells were washed with a washing solution (0.05% Tween™ 20/PBS) and then subjected to blocking for 1 hour at room temperature by using 200 μl of a blocking solution (1% BSA/PBS), and then washed twice with the washing solution. […] The wells were washed 5 times with a washing solution, and 100 μl of a just-prepared TMB solution (manufactured and sold by Kirkegaad & Perry Laboratories, U.S.A.) was added thereto to effect a color reaction. 2 Minutes after the start of the color reaction, 100 μl of a 1 N sulfuric acid solution (manufactured and sold by Nacalai Tesque, Inc., Japan) was added to the wells to thereby terminate the reaction. Then, the absorbance at 450 nm was measured by means of a plate reader (manufactured and sold by Bio-Rad Laboratories, U.S.A.).
# as §1, with “With respect to” for “Specifically, with respect to”, “of the sample, MPO” for “of the above-mentioned sample, MPO”, “respect to a standard MPO” for “respect to the standard MPO”
substance,measurement,setting,value
"α-[4-(1,1,3,3,-Tetramethylbutyl)phenyl]-ω-hydroxypoly(oxy-1,2-ethanediyl) [Triton ™ X-100]",Time from start of treatment within which MPO is released from the white blood cells to a satisfactory extent,[1]; healthy human whole blood,≤ 60 min
same,MPO concentration of whole blood,[1]; treatment time 1 minute,9.88 ± 0.50 µg/mL
same,MPO concentration of whole blood,[1]; treatment time 5 minutes,10.17 ± 0.63 µg/mL
same,MPO concentration of whole blood,[1]; treatment time 30 minutes,9.94 ± 0.72 µg/mL
same,MPO concentration of whole blood,[1]; treatment time 60 minutes,10.01 ± 0.22 µg/mL
same,MPO concentration of whole blood,[2],6.43 ± 1.25 µg/mL
